Experimental data: US8481732B2 (Incyte Corporation, priority 2009, dated 2013)

Biological target: T1, histamine H4 receptor (Homo sapiens, UniProt Q9H3N8)
T1 construct: expressed in transfected cells; host or cells: HEK293SFM cells (membrane preparation)
Experiment: H4 Membrane Binding Assay (3H-Histamine displacement)
Settings: membranes of recombinant HEK293SFM cells, 10 nM 3H-Histamine, 1.5 hr at room temperature
Summary of the method: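 Radioligand is [3H]-histamine; 1000× unlabeled ligand sets nonspecific binding. Receptor source: membrane pellets from HEK293SFM cells carrying human H4 or other histamine subtypes (human H1–H3, mouse H4), in 50 mM Tris-HCl pH 7.5. Filtration through PEI-treated GF/B filters, then scintillation counting.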

SMILES | IC50 [nM]
CC(C)c1ccc(CC(NC(=O)c2ccc3c(N4CCN(C)CC4)nc(N)nc3c2)C(=O)N(C)C)cc1 (stereo not drawn) [Example 149, 2-Amino-N-[2-(dimethylamino)-1-(4-isopropylbenzyl)-2-oxoethyl]-4-(4-methylpiperazin-1-yl)quinazoline-7-carboxamide] | 40
CN1CCN(c2nc(N)nc3cc(C(=O)NC(Cc4ccc(-c5ccccc5)cc4)c4nccs4)ccc23)CC1 (stereo not drawn) [Example 151, 2-amino-N-[2-biphenyl-4-yl-1-(1,3-thiazol-2-yl)ethyl]-4-(4-methylpiperazin-1-yl)quinazoline-7-carboxamide] | 69
COc1cccc(-c2ccc(C[C@H](NC(=O)c3ccc4c(N5CCN(C)CC5)nc(N)nc4c3)C(=O)N(C)C)cc2)n1 [Example 153, 2-Amino-N-{(1S)-2-(dimethylamino)-1-[4-(6-methoxypyridin-2-yl)benzyl]-2-oxoethyl}-4-(4-methylpiperazin-1-yl)quinazoline-7-carboxamide] | 19
CN1CCN(c2nc(N)nc3cc(C(=O)N[C@@H](Cc4ccc(-c5cncc(C#N)c5)cc4)C(=O)N(C)C)ccc23)CC1 [Example 156, 2-Amino-N-[(1S)-1-[4-(5-cyanopyridin-3-yl)benzyl]-2-(dimethylamino)-2-oxoethyl]-4-(4-methylpiperazin-1-yl)quinazoline-7-carboxamide] | 41
CN1CCN(c2nc(N)nc3cc(C(=O)N[C@@H](Cc4ccc(-c5nc(C(F)(F)F)ccc5C#N)cc4)C(=O)N(C)C)ccc23)CC1 [Example 157, 2-Amino-N-[(1S)-1-{4-[3-cyano-6-(trifluoromethyl)pyridin-2-yl]benzyl}-2-(dimethylamino)-2-oxoethyl]-4-(4-methylpiperazin-1-yl)quinazoline-7-carboxamide] | 22
CN1CCN(c2nc(N)nc3cc(C(=O)N[C@@H](Cc4ccc(-c5cncc(C(F)(F)F)c5)cc4)C(=O)N(C)C)ccc23)CC1 [Example 161, 2-Amino-N-((1S)-2-(dimethylamino)-2-oxo-1-{4-[5-(trifluoromethyl)pyridin-3-yl]benzyl}ethyl)-4-(4-methylpiperazin-1-yl)quinazoline-7-carboxamide] | 31
COc1ccc(-c2ccc(CC(NC(=O)c3ccc4c(N5CCN(C)CC5)nc(N)nc4c3)C(=O)N(C)C)cn2)cc1 (stereo not drawn) [Example 164, 2-Amino-N-(-2-(dimethylamino)-1-{[6-(4-methoxyphenyl)pyridin-3-yl]methyl}-2-oxoethyl)-4-(4-methylpiperazin-1-yl)quinazoline-7-carboxamide] | 57
CN1CCN(c2nc(N)nc3cc(C(=O)N[C@@H](Cc4ccc(OC(=O)Nc5cccc(Cl)c5)cc4)C(=O)N(C)C)ccc23)CC1 [Example 165, 4-[(2S)-2-({[2-Amino-4-(4-methylpiperazin-1-yl)quinazolin-7-yl]carbonyl}amino)-3-(dimethylamino)-3-oxopropyl]phenyl (3-chlorophenyl)carbamate] | 16
COC(=O)c1ccc(Oc2cccc(CC(NC(=O)c3ccc4c(N5CCN(C)CC5)nc(N)nc4c3)C(=O)N(C)C)c2)cc1 (stereo not drawn) [Example 169, Methyl 4-{3-[2-({[2-amino-4-(4-methylpiperazin-1-yl)quinazolin-7-yl]carbonyl}amino)-3-(dimethylamino)-3-oxopropyl]phenoxy}benzoate] | 23
COc1ccc(C#N)c(Oc2cccc(CC(NC(=O)c3ccc4c(N5CCN(C)CC5)nc(N)nc4c3)C(=O)N(C)C)c2)c1 (stereo not drawn) [Example 170, 2-Amino-N-[1-[3-(2-cyano-5-methoxyphenoxy)benzyl]-2-(dimethylamino)-2-oxoethyl]-4-(4-methylpiperazin-1-yl)quinazoline-7-carboxamide] | 23
CN1CCN(c2nc(N)nc3cc(C(=O)NC(Cc4cccc(Oc5ccc(Cl)cc5C#N)c4)C(=O)N(C)C)ccc23)CC1 (stereo not drawn) [Example 172, 2-Amino-N-[1-[3-(4-chloro-2-cyanophenoxy)benzyl]-2-(dimethylamino)-2-oxoethyl]-4-(4-methylpiperazin-1-yl)quinazoline-7-carboxamide] | 26
Cc1ccc(C#N)c(Oc2cccc(CC(NC(=O)c3ccc4c(N5CCN(C)CC5)nc(N)nc4c3)C(=O)N(C)C)c2)n1 (stereo not drawn) [Example 173, 2-Amino-N-[1-{3-[(3-cyano-6-methylpyridin-2-yl)oxy]benzyl}-2-(dimethylamino)-2-oxoethyl]-4-(4-methylpiperazin-1-yl)quinazoline-7-carboxamide] | 67

Other lines, results leading:

IC50 [nM] | SMILES
44 | CN1CCN(c2nc(N)nc3cc(C(=O)NC(Cc4ccc(C(F)(F)F)cc4)C(=O)N(C)C)ccc23)CC1 (stereo not drawn) [Example 150, 2-Amino-N-{2-(dimethylamino)-2-oxo-1-[4-(trifluoromethyl)benzyl]ethyl}-4-(4-methylpiperazin-1-yl)quinazoline-7-carboxamide]
10 | COc1ccccc1-c1ccc(C[C@H](NC(=O)c2ccc3c(N4CCN(C)CC4)nc(N)nc3c2)C(=O)N(C)C)cc1 [Example 152, 2-Amino-N-{(1S)-2-(dimethylamino)-1-[(2′-methoxybiphenyl-4-yl)methyl]-2-oxoethyl}-4-(4-methylpiperazin-1-yl)quinazoline-7-carboxamide]
14 | CN1CCN(c2nc(N)nc3cc(C(=O)N[C@@H](Cc4ccc(-c5cccc(C#N)c5)cc4)C(=O)N(C)C)ccc23)CC1 [Example 154, 2-Amino-N-[(1S)-1-[(3′-cyanobiphenyl-4-yl)methyl]-2-(dimethylamino)-2-oxoethyl]-4-(4-methylpiperazin-1-yl)quinazoline-7-carboxamide]
55 | CN1CCN(c2nc(N)nc3cc(C(=O)N[C@@H](Cc4ccc(-c5ccc(C#N)cn5)cc4)C(=O)N(C)C)ccc23)CC1 [Example 155, 2-Amino-N-[(1S)-1-[4-(5-cyanopyridin-2-yl)benzyl]-2-(dimethylamino)-2-oxoethyl]-4-(4-methylpiperazin-1-yl)quinazoline-7-carboxamide]
6.6 | COC(=O)c1cccc(-c2ccc(C[C@H](NC(=O)c3ccc4c(N5CCN(C)CC5)nc(N)nc4c3)C(=O)N(C)C)cc2)c1 [Example 158, Methyl 4′-[(2S)-2-({[2-amino-4-(4-methylpiperazin-1-yl)quinazolin-7-yl]carbonyl}amino)-3-(dimethylamino)-3-oxopropyl]biphenyl-3-carboxylate]
26 | CN1CCN(c2nc(N)nc3cc(C(=O)N[C@@H](Cc4ccc(-c5ccc(F)c(C(F)(F)F)c5)cc4)C(=O)N(C)C)ccc23)CC1 [Example 159, 2-Amino-N-((1S)-2-(dimethylamino)-1-{[4′-fluoro-3′-(trifluoromethyl)biphenyl-4-yl]methyl}-2-oxoethyl)-4-(4-methylpiperazin-1-yl)quinazoline-7-carboxamide]
52 | CN1CCN(c2nc(N)nc3cc(C(=O)N[C@@H](Cc4ccc(-c5ccccn5)cc4)C(=O)N(C)C)ccc23)CC1 [Example 160, 2-Amino-N-[(1S)-2-(dimethylamino)-2-oxo-1-(4-pyridin-2-ylbenzyl)ethyl]-4-(4-methylpiperazin-1-yl)quinazoline-7-carboxamide]
10 | CN1CCN(c2nc(N)nc3cc(C(=O)N[C@@H](Cc4ccc(-c5cccc(Cl)c5Cl)cc4)C(=O)N(C)C)ccc23)CC1 [Example 162, 2-Amino-N-[(1S)-1-[(2′,3′-dichlorobiphenyl-4-yl)methyl]-2-(dimethylamino)-2-oxoethyl]-4-(4-methylpiperazin-1-yl)quinazoline-7-carboxamide]
66 | CN1CCN(c2nc(N)nc3cc(C(=O)NC(Cc4ccc(-c5cccc(F)c5F)nc4)C(=O)N(C)C)ccc23)CC1 (stereo not drawn) [Example 163, 2-Amino-N-[1-{[6-(2,3-difluorophenyl)pyridin-3-yl]methyl}-2-(dimethylamino)-2-oxoethyl]-4-(4-methylpiperazin-1-yl)quinazoline-7-carboxamide]
31 | COc1ccc(Oc2cccc(CC(NC(=O)c3ccc4c(N5CCN(C)CC5)nc(N)nc4c3)C(=O)N(C)C)c2)cc1 (stereo not drawn) [Example 166, 2-Amino-N-{2-(dimethylamino)-1-[3-(4-methoxyphenoxy)benzyl]-2-oxoethyl}-4-(4-methylpiperazin-1-yl)quinazoline-7-carboxamide]
15 | CN1CCN(c2nc(N)nc3cc(C(=O)NC(Cc4cccc(Oc5cc(Cl)cc(Cl)c5)c4)C(=O)N(C)C)ccc23)CC1 (stereo not drawn) [Example 167, 2-Amino-N-[1-[3-(3,5-dichlorophenoxy)benzyl]-2-(dimethylamino)-2-oxoethyl]-4-(4-methylpiperazin-1-yl)quinazoline-7-carboxamide]
9.6 | CN1CCN(c2nc(N)nc3cc(C(=O)NC(Cc4cccc(Oc5nsnc5Cl)c4)C(=O)N(C)C)ccc23)CC1 (stereo not drawn) [Example 168, 2-Amino-N-[1-{3-[(4-chloro-1,2,5-thiadiazol-3-yl)oxy]benzyl}-2-(dimethylamino)-2-oxoethyl]-4-(4-methylpiperazin-1-yl)quinazoline-7-carboxamide]
13 | CN1CCN(c2nc(N)nc3cc(C(=O)NC(Cc4cccc(Oc5cc(C#N)ccc5C(F)(F)F)c4)C(=O)N(C)C)ccc23)CC1 (stereo not drawn) [Example 171, 2-Amino-N-[1-{3-[5-cyano-2-(trifluoromethyl)phenoxy]benzyl}-2-(dimethylamino)-2-oxoethyl]-4-(4-methylpiperazin-1-yl)quinazoline-7-carboxamide]
23 | CN1CCN(c2nc(N)nc3cc(C(=O)NC(Cc4cccc(Oc5cccc(C#N)c5)c4)C(=O)N(C)C)ccc23)CC1 (stereo not drawn) [Example 174, 2-Amino-N-(3-(3-(3-cyanophenoxy)phenyl)-1-(dimethylamino)-1-oxopropan-2-yl)-4-(4-methylpiperazin-1-yl)quinazoline-7-carboxamide]
18 | CN1CCN(c2nc(N)nc3cc(C(=O)NC(Cc4cccc(OCc5cccc(C#N)c5)c4)C(=O)N(C)C)ccc23)CC1 (stereo not drawn) [Example 175, 2-Amino-N-[1-{3-[(3-cyanobenzyl)oxy]benzyl}-2-(dimethylamino)-2-oxoethyl]-4-(4-methylpiperazin-1-yl)quinazoline-7-carboxamide]
